Tests used:
[1] = Antiproliferative activity against mink Mv1Lu-p3TP-Lux cells by luciferase reporter assay; assay type: functional, cell-based, Neovison vison; settings: Neogale vison
TGF-beta receptor type-1 = TGF-beta receptor type-1 (Homo sapiens, UniProt P36897, T204D); assay: Inhibition of TGFbeta type receptor 1 ALK5 (T204D) expressed in Sf9 cells
NIH3T3 = assay: Antiproliferative activity against mouse NIH3T3 cells by [3H]thymidine assay; assay type: functional, cell-based
Mus musculus [2] = assay: Inhibition of TGFbeta type receptor 1 in human Calu6 cells xenografted mouse at 50 mg/kg, po by single point IVTI assay; assay type: functional, Calu-6; design: scale not given: the % may be the effect or the level left
Mus musculus [3] = assay: Inhibition of TGFbeta type receptor 1 in orally dosed human Calu6 cells xenografted mouse by IVTI […] assay; assay type: functional, organism-based; settings: Calu-6
[4] = Metabolic stability in rat microsomes; assay type: ADME, Microsome; further: time not given here
Caco-2 = assay: Permeability from apical to basolateral side of human Caco-2 cell membrane; assay type: ADME, cell-based
Liver microsomes = assay: Metabolic stability in human liver microsomes; assay type: ADME, Microsome; further: time not given here
[5] = AUC in rat at 10 mg/kg, po; assay type: ADME, organism-based; design: dose 10 mg/kg, route oral; settings: plasma

Row | Structure (SMILES) | IC50 [1] [nM] | IC50 (TGF-beta receptor type-1) [nM] | IC50 (NIH3T3) [nM] | further results
1 | CN1CCN(C(=O)COc2ccc3c(-c4c(-c5ccccn5)nn5c4CCC5)ccnc3c2)CC1 | 260 | 49 | 730 | –
2 | CN1CCN(CCOc2ccc3c(-c4c(-c5ccccn5)nn5c4CCC5)ccnc3c2)CC1 | 38 | 100 | 54 | Activity (Mus musculus [2]): 73%; EC50 (Mus musculus [3]): 919 nM
3 | Clc1cc(-c2c(-c3ccccn3)nn3c2CCC3)c2ccccc2n1 | > 20000 | 19800 | > 20000 | –
4 | CN(C)CCCCCOc1ccc2c(-c3c(-c4ccccn4)nn4c3CCC4)ccnc2c1 | 24 | 47 | 51 | –
5 | Cc1cccc(-c2nn3c(c2-c2ccnc4ccc(OC(F)(F)F)cc24)CCC3)n1 | 201 | 141 | 254 | –
6 | CCSc1cc(-c2c(-c3ccccn3)nn3c2CCC3)c2ccccc2n1 | > 20000 | > 20000 | – | –
7 | O=C(O)c1ccc(Oc2ccc3c(-c4c(-c5ccccn5)nn5c4CCC5)ccnc3c2)cc1 | > 20000 | 4800 | > 20000 | –
8 | CCN(C)CCOc1ccc2c(-c3c(-c4ccccn4)nn4c3CCC4)ccnc2c1 | 61 | 85 | 72 | Stability [4]: 57%; permeability (Caco-2): 27%; Stability (Liver microsomes): 29%; Activity (Mus musculus [2]): 70%; EC50 (Mus musculus [3]): 343 nM
9 | COc1cc(-c2c(-c3ccccn3)nn3c2CCC3)c2ccccc2n1 | – | > 20000 | – | –
10 | NC(=O)c1ccc(Oc2ccc3c(-c4c(-c5ccccn5)nn5c4CCC5)ccnc3c2)cc1 | – | 1100 | – | –
11 | CN(C)CC(=O)Nc1ccc2c(-c3c(-c4ccccn4)nn4c3CCC4)ccnc2c1 | – | – | – | AUC [5]: 398 ng·h/mL
12 | c1ccc(-c2nn3c(c2-c2cc(N4CCCC4)nc4ccccc24)CCC3)nc1 | > 20000 | > 20000 | – | –
13 | Oc1ccc2c(-c3c(-c4ccccn4)nn4c3CCC4)ccnc2c1 | 200 | 160 | 420 | –
14 | Cc1cccc(-c2nn3c(c2-c2ccnc4ccc(C(=O)NCCN(C)C)cc24)CCC3)n1 | 468 | 193 | 2270 | –
